Assay results taken from PMC8910920 (International Journal of Molecular Sciences, 2022).

How the values were obtained:
[1] = In vitro metabolism in human liver microsomes; format: in vitro ADME
[2] = target: T1, hM3 (Homo sapiens, UniProt P20309); experiment: Radioligand binding assay, CHO cells, hM3; details: radioligand [3H]4-DMAP
T1 construct: host or cells: CHO
Protocol: To define whether β–lactam derivative RGM8-51 could bind to CGRPR, CB2 and M3 receptors, in vitro binding assays were performed, using CHO cell lines transfected with these receptors. The degree of binding was determined by using specific radioligands for each receptor (Table 2, footnote).
These studies were subcontracted to Eurofins-CEREP or Eurofins-PANLABS. Briefly, agonists and antagonist assays were performed in cell cultures overexpressing the corresponding channel (CHO: TRPV1 and TRPA1; HEK293: TRPV3 and ASIC3). In vitro pharmacology, cellular channel functional assays: the compound was prepared in assay buffer to the final concentration, 10 μM. […] The agonist assay was conducted on fluorimeter instruments where the test compound, vehicle controls, and reference agonist were added to the assay plate after a fluorescence baseline was established. […] For the antagonist assay, the compound was pre-incubated for five minutes at room temperature, and then challenged with the EC80 concentration of the reference agonist after establishment of a fluorescence baseline. […] Binding assay results are expressed as a percent of control specific binding. […] Aqueous solubility (μM) was determined by comparing the peak area of the principal peak in a calibration standard (200 μM) containing organic solvent (methanol/water, 60/40, v/v) with the peak area of the corresponding peak in a buffer sample. […]

[3] = system: OXA-induced cold hypersensitivity in male mice; experiment: Oxaliplatin-induced peripheral neuropathy, acetone drop test; format: in vivo, mouse
Protocol: For the OXA-induced peripheral neuropathy assay, OXA was […] injected on days 1, 3 and 5 to male mice, at a 6 mg/kg dose, to induce hypersensitivity to cold, as monitored by the acetone drop test (Figure 6).
For the experiments, 6–8 weeks C57 male mice (≈30g) (Harlam, Holland) were used. All experiments were approved by the Institutional Animal and Ethical Committee of the Universidad Miguel Hernandez and Comunidad Valencian ethical committees (2021/VSC/PEA/0089) where experiments were conducted and they were in accordance with the guidelines of the Economic European Community and the Committee for Research and Ethical Issues of the International Association for the Study of Pain. All parts of the study concerning animal care were performed under the control of veterinarians. Experiments were performed blinded for NTG and compound treatment.
Oxaliplatin (OXA, Tocris, Bristol, UK) was used to induce peripheral neuropathy and was dissolved in water with gentle warming as formerly described. OXA was intraperitoneally injected on days 1, 3 and 5 at a 6 mg/kg dose. […] Cold chemical sensitivity was assessed using the acetone drop test. […] Positive nociceptive responses (licking time in seconds) were recorded with a digital stopwatch during 20 s (cut-off). Acetone was applied twice in an interval of 5 min between each application and the mean was calculated.

T1 sequence (P20309 whole entry): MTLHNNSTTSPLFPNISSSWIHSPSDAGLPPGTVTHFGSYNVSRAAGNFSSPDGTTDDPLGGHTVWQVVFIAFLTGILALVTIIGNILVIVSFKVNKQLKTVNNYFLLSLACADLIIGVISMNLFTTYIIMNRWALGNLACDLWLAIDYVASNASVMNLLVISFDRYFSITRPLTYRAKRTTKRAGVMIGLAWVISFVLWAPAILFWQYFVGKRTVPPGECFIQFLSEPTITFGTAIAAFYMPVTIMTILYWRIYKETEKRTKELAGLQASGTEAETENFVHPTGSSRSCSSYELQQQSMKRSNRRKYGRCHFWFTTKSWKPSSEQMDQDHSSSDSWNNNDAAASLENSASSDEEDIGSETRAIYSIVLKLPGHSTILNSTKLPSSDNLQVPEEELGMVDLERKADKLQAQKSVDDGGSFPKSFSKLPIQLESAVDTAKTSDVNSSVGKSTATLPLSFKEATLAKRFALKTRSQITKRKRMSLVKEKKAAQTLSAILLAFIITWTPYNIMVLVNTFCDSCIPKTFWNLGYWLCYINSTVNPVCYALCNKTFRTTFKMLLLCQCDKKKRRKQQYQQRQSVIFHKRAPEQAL

## C[C@@H]1C(=O)N(C[C@H](Cc2ccccc2)N(Cc2ccccc2)Cc2ccccc2)[C@]1(Cc1ccccc1)C(=O)OC(C)(C)C [RGM8-51, 4(S)-Benzyl-3S-methyl-4-(tert-butoxy)carbonyl-1-[(2′S-dibenzylamino-3′-phenyl)prop-1′-yl]-2-oxoazetidine]
[1]
  Metabolism Clint: 614 µL/min/mg
  Metabolism t1/2: 11 min
[1]; human, liver microsomes
  microsomal CLint: 614 µL/min/mg
[1]; human, liver microsomes, read-out: Metabolism t1/2
  half-life: 11.3 min
[2]; 10 μM
  Binding hM3 (%), inhibition of specific binding: did not show significant affinity
[2]; read-out: Binding hM3 (%), inhibition of specific binding
  inhibition at 10 µM: -4.1 ± 3.1%
[3]; 0.1 µg i.pl., sustained activity from 15 to 30 min
  OXA-induced cold hypersensitivity (cold-induced paw licking): still highly active
[3]; 1 μg i.pl., significant at 15 min, peak effect from 30 to 60 min
  OXA-induced cold hypersensitivity (cold-induced paw licking): attenuates the cold-induced paw licking in a significant manner
